Measurements as given in publication PMC10835732, “Pharmacokinetics of Hydroxytyrosol and Its Sulfate and Glucuronide Metabolites after the Oral Administration of Table Olives to Sprague-Dawley Rats” (Journal of Agricultural and Food Chemistry, 2024).
Values joined by “and” are separate entries in the source; they are usually repeats but may differ in a detail not shown here. Equal entries are not always repeated. Where two headings read alike, the source gives them in different places. Marks after values point to notes of the source that are not given here.

How the values were obtained:
[1] = ref Serra et al. 23, cited from earlier work
[2] = Plasma pharmacokinetics (noncompartmental analysis) after single oral administration of Arbequina table olives; type: in vivo, Sprague-Dawley rats; conditions: for Cmax/D: D = dose of hydroxytyrosol in nmol; for AUC0–∞/D / AUCt/D: D in nmol; for AUCt: time zero up to 8 h; for Tmax: median (min, max); for k el: read-out: λz (apparent elimination rate constant) (converted); for Cmax: read-out: Peak plasma concentration (Cmax), text value with ± spread
Procedure: The experiments were performed using Sprague–Dawley rats (n = 13) randomly divided into two groups, the 30 olives group (n = 6) that received the dose of 3.85 g/kg and the 60 olives group (n = 7), which was given the dose of 7.70 g/kg. The freshly prepared homogeneous suspensions were given to overnight fasted rats by oral gavage (18-gauge × 76 mm, ref FFSS-186-76, Instech Laboratories, Inc., Plymouth Meeting, PA). The volume of administration was 10 mL/kg. After the single administration of Arbequina table olives, blood was obtained at 30, 60, 90, 120, 240, 360, and 480 min from each animal. Samples were withdrawn from the lateral saphenous vein and placed into Microvette CB 300 K2 EDTA-K2 (Sarstedt, Granollers, Spain) coated tubes.[31] At each time point, 0.40 mL of blood was collected, meaning that a maximum of 2.4 mL was obtained from each animal. […] Blood corresponding to 480 min was taken by a cardiac puncture with the animal under terminal anesthesia. Plasma was immediately obtained by centrifugation at 1500g at 4 °C for 15 min (Centrifuge Megafuge 1.0R, Heraeus, Boadilla, Spain) and kept at −20 °C until analysis.
Hydroxytyrosol and its metabolites in plasma were determined by liquid–liquid extraction followed by LC-MS/MS analysis as previously described.[11] Briefly, 200 μL of plasma was mixed with 10 μL of freshly prepared 10% ascorbic acid followed by 10 μL of 0.5% acetic acid and 10 μL of 2-(3-hydroxyphenyl) ethanol (10 μM, I.S.). Then, 2 mL of ethyl acetate was added to the samples that were vigorously mixed in a vortex (5 min), placed into an ultrasonic bath (10 min), and centrifuged at 1500g at 4 °C (15 min) (Centrifuge Megafuge 1.0R). A second extraction of the pellet with 2 mL of ethyl acetate was carried out. Subsequently, the two pooled supernatants were evaporated to dryness, reconstituted with 100 μL of 80% methanol, placed into amber vials, and immediately analyzed by LC-MS/MS.
The plasmatic concentrations were calculated by the interpolation of the peak area ratio of hydroxytyrosol versus I.S. on a calibration curve. Calibration standards were constructed with blank plasma obtained by cardiac puncture from overnight fasted rats that had never received either table olives or hydroxytyrosol. […] Results were expressed in nmol per liter of plasma (nmol/L). The method was validated following the EMA guidelines[33] at six different concentrations ranging from 0 to 250 nmol/L analyzed on three different days.
Individual PK of hydroxytyrosol and its metabolites were estimated from the plasma concentrations versus time profiles of each animal, through a noncompartmental analysis (NCA) with Phoenix-64 (Build 8.3.4.295, Certara, Princeton, N.J., USA). All concentrations of each pharmacokinetic profile were considered for NCA because the values obtained were above the LOQ. Peak plasma concentration (Cmax) and time to peak plasma concentration (Tmax) were determined by visual inspection of the pharmacokinetic profiles. The apparent elimination rate constant (λz) was estimated from the terminal slope of the semilogarithmic concentration–time curve. The apparent elimination half-life (t1/2λz) was calculated as t1/2z = 0.693/λz. The area under the plasma concentration–time curve from time zero to the last experimental time (AUCt) with analyte concentrations above the LOQ, was calculated by the linear-log trapezoidal rule. The area from time zero to infinity (AUC0–∞) was calculated by adding to the AUCt value the extrapolated area calculated as the ratio between the predicted concentration (Ct) at the last sampling time with concentrations above the LOQ and λz. The mean residence time (MRT0–∞) was given by the ratio of the area under the first-moment curve (AUMC0–∞) to the area under the zero-moment curve (AUC0–∞). The ratio indicating the relative exposure of each metabolite with respect to hydroxytyrosol (AUC0–∞m/AUC0–∞) was also calculated for all of the metabolites. […]

[3] = healthy volunteers, ref Goldberg et al. 26, cited from earlier work; for AUC: 10 Kalamata olives
[4] = 30 olives group (hydroxytyrosol 2.95 mg/kg oral), geometric mean (95% CI)
[5] = 60 olives group (hydroxytyrosol 5.89 mg/kg oral), geometric mean (95% CI)

Cmax/D [2, 4]: 0.0044 (0.0026, 0.0077)^a | AUC0–∞/D [2, 4]: 0.8149 (0.7420, 0.8949)^a | AUCt/D [2, 4]: 0.6383 (0.5153, 0.7907)^a | Vss/F (apparent steady-state volume of distribution) [2, 4]: 1139 (671.4, 1932)^a L/kg | AUCt [2, 4]: 3363 (2642, 4280)a min·nmol/L | Cmax/D [2, 5]: 0.0039 (0.0028, 0.0053)^a | AUC0–∞/D [2, 5]: 0.7993 (0.6170, 1.035)^a | AUCt/D [2, 5]: 0.7091 (0.5407, 0.9300)^a | Vss/F (apparent steady-state volume of distribution) [2, 5]: 882.8 (674.2, 1161)^a L/kg | Tmax ([2]; 60 olives group (hydroxytyrosol 5.89 mg/kg oral)): 41 (33, 68)^a min | AUCt [2, 5]: 7912 (6031, 10381)^b min·nmol/L | half-life ([2]; Sprague-Dawley, rat, plasma, oral, both doses, assuming first-order absorption, read-out: absorption half-life inferred from Cmax/AUC): 2.1 to 2.4 h | CL/F ([2]; Sprague-Dawley, rat, plasma, oral, both doses, read-out: Cl/F): ~258 L/h/kg | Vd/F ([2]; Sprague-Dawley, rat, plasma, oral, both doses, read-out: Vss/F or Vdarea/F): ~1000 L/kg | Vd/F ([2]; Sprague-Dawley, rat, plasma, po, 2.95 mg/kg, 30 olives group (hydroxytyrosol 2.95 mg/kg oral), geometric mean (95% CI), read-out: Vdarea/F (apparent volume of distribution, terminal phase)): 1070 L/kg | Vd/F ([2]; Sprague-Dawley, rat, plasma, po, 2.95 mg/kg, 30 olives group (hydroxytyrosol 2.95 mg/kg oral), geometric mean (95% CI), read-out: Vss/F (apparent steady-state volume of distribution)): 1140 L/kg | half-life ([2]; Sprague-Dawley, rat, plasma, po, 2.95 mg/kg, 30 olives group (hydroxytyrosol 2.95 mg/kg oral), geometric mean (95% CI), read-out: t1/2λz (apparent elimination half-life)): 2.77 h | Tmax ([2]; Sprague-Dawley, rat, plasma, po, 2.95 mg/kg, 30 olives group (hydroxytyrosol 2.95 mg/kg oral), read-out: Tmax (converted)): ~1 h | Vd/F ([2]; Sprague-Dawley, rat, plasma, po, 5.89 mg/kg, 60 olives group (hydroxytyrosol 5.89 mg/kg oral), geometric mean (95% CI), read-out: Vdarea/F (apparent volume of distribution, terminal phase)): 678 L/kg | Vd/F ([2]; Sprague-Dawley, rat, plasma, po, 5.89 mg/kg, 60 olives group (hydroxytyrosol 5.89 mg/kg oral), geometric mean (95% CI), read-out: Vss/F (apparent steady-state volume of distribution)): 883 L/kg | half-life ([2]; Sprague-Dawley, rat, plasma, po, 5.89 mg/kg, 60 olives group (hydroxytyrosol 5.89 mg/kg oral), geometric mean (95% CI), read-out: t1/2λz (apparent elimination half-life)): 1.83 h | Tmax ([2]; Sprague-Dawley, rat, plasma, po, 5.89 mg/kg, 60 olives group (hydroxytyrosol 5.89 mg/kg oral), read-out: Tmax (converted)): ~0.667 h | half-life ([2]; Sprague-Dawley, rat, plasma, po, both doses (30 and 60 olives groups), oral table olives, read-out: half-life (t1/2λz) (converted)): ~2.5 h | CL/F ([2]; Sprague-Dawley, rat, plasma, 30 olives group (hydroxytyrosol 2.95 mg/kg oral), geometric mean (95% CI), read-out: Cl/F (apparent clearance)): 268 L/h/kg | MRT inf ([2]; Sprague-Dawley, rat, plasma, 30 olives group (hydroxytyrosol 2.95 mg/kg oral), geometric mean (95% CI), read-out: MRT0–∞ (converted)): 4.26 h | k el ([2]; Sprague-Dawley, rat, plasma, 30 olives group (hydroxytyrosol 2.95 mg/kg oral), geometric mean (95% CI)): 7e-05 s⁻¹ | Cmax ([2]; Sprague-Dawley, rat, plasma, 30 olives group (hydroxytyrosol 2.95 mg/kg oral)): 0.0234 ± 0.00168 µM | CL/F ([2]; Sprague-Dawley, rat, plasma, 60 olives group (hydroxytyrosol 5.89 mg/kg oral), geometric mean (95% CI), read-out: Cl/F (apparent clearance)): 257 L/h/kg | MRT inf ([2]; Sprague-Dawley, rat, plasma, 60 olives group (hydroxytyrosol 5.89 mg/kg oral), geometric mean (95% CI), read-out: MRT0–∞ (converted)): 3.44 h | k el ([2]; Sprague-Dawley, rat, plasma, 60 olives group (hydroxytyrosol 5.89 mg/kg oral), geometric mean (95% CI)): 0.000105 s⁻¹ | Cmax ([2]; Sprague-Dawley, rat, plasma, 60 olives group (hydroxytyrosol 5.89 mg/kg oral)): 0.043 ± 0.00139 µM | MRT inf ([2]; Sprague-Dawley, rat, plasma, both doses (30 and 60 olives groups), oral table olives, read-out: mean residence time (MRT0–∞)): ~4 h | PK behaviour between doses (dose linearity) ([2]; between doses of 2.95 and 5.85 mg hydroxytyrosol/kg, noncompartmental analysis): linear PK | percentage of the AUC of each compound divided by the AUC of the sum of all of them ([2]; both doses (similar ratios between doses), plasma): 11%
SMILES: OCCc1ccc(O)c(O)c1 [hydroxytyrosol]
share in rat plasma ([1]; after phenolic extract from olive cake containing 10.35 mg/kg of hydroxytyrosol): 6% | Tmax ([1]; sampling times limited to 1, 2 and 4 h): 2 h | AUC0–∞ ([2]; 30 olives group (3.85 g olives/kg, hydroxytyrosol 2.95 mg/kg oral), geometric mean (95% CI)): 4293 min·nmol/L and 4293 (3815, 4830)^a min·nmol/L | AUC0–∞ ([2]; 60 olives group (7.70 g olives/kg, hydroxytyrosol 5.89 mg/kg oral), geometric mean (95% CI)): 8919 min·nmol/L and 8919 (6920, 11495)^b min·nmol/L | Cmax ([3]; 10 Kalamata olives with 389.87 mg hydroxytyrosol/kg, parent compound): 0.00064 µM | AUC ([3]; converted unit): 0.65 nM·h | AUC [3]: 0.65 nM·h
